“And” between values parts separate entries of the source, which are not always exact repeats. Equal values may be shown once.
Experiments:
S. furcifera adults = experiment: Y-tube olfactometer behavioral trials; type: in vivo, Sogatella furcifera; settings: odorant 50 µL/L vs hexane; adults
Method in brief: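 Single S. furcifera adults (2 days post-emergence, starved 0.5 h) chose between odorant (100 µL of 50 µL/L on filter paper) and hexane control in a glass Y-tube, charcoal-filtered humidified air 300 mL/min per arm, 25 ± 1 °C, 50% RH. Choice scored if insect passed half an arm and stayed >1 min within 10 min; 45 insects per compound, chi-squared test.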

SfurOBP1 = SfurOBP1 (Sogatella furcifera, UniProt V5T8N5); experiment: biochemical; type: binding; settings: for Fluorescence competitive binding assay, fluorescence intensity: OBP1, three replicate columns
Method in brief: (§1)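 Protein 2.0 µM + 1-NPN 2.0 µM, 50 mM Tris-HCl pH 7.4; competitor odorants 2, 4 … 20 µM final; read 2 min post-addition, ex 337/em 390–490 nm; n=3. K1-NPN from 1-NPN titration/Scatchard; Ki from IC50 corrected for free 1-NPN.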

SfurOBP11 = SfurOBP11 (Sogatella furcifera, UniProt V5T6E3); experiment: biochemical; type: binding
Method in brief: as §1

SfurOBP2 = SfurOBP2 (Sogatella furcifera, UniProt V5T759); experiment: biochemical; type: binding
Method in brief: as §1

SfurOBP3 = SfurOBP3 (Sogatella furcifera, UniProt V5T818); experiment: biochemical; type: binding; settings: for Fluorescence competitive binding assay, fluorescence intensity: OBP3, three replicate columns
Method in brief: as §1

Chain of SfurOBP11 (V5T6E3 entry or part of it): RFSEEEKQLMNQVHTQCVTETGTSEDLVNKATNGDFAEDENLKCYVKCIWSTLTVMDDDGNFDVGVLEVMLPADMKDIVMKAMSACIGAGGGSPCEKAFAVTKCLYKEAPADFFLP
Chain of SfurOBP3 (V5T818 entry or part of it): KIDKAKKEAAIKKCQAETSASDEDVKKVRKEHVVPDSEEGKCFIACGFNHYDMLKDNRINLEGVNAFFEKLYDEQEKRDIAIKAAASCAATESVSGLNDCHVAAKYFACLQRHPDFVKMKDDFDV
Chain of SfurOBP1 (V5T8N5 entry or part of it): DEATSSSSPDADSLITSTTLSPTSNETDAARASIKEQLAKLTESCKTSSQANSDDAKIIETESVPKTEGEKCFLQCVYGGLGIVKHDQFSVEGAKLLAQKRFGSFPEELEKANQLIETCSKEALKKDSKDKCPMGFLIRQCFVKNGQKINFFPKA
Chain of SfurOBP2 (V5T759 entry or part of it): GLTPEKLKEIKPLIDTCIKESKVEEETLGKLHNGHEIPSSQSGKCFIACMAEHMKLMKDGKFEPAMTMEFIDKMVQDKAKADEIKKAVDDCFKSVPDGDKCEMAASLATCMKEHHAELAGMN

Fluorescence competitive binding assay, fluorescence intensity (SfurOBP1; ligand concentration 2 (μM)): 6522 and 6473 and 6498 | Fluorescence competitive binding assay, fluorescence intensity (SfurOBP1; ligand concentration 4 (μM)): 5655 and 6432 and 6908 | Fluorescence competitive binding assay, fluorescence intensity (SfurOBP1; ligand concentration 6 (μM)): 8453 and 7604 and 7714 | Fluorescence competitive binding assay, fluorescence intensity (SfurOBP1; ligand concentration 8 (μM)): 8297 and 7919 and 6967 | Fluorescence competitive binding assay, fluorescence intensity (SfurOBP1; ligand concentration 10 (μM)): 6386 and 8717 and 6918 | Fluorescence competitive binding assay, fluorescence intensity (SfurOBP1; ligand concentration 12 (μM)): 6193 and 7108 and 6694 | Fluorescence competitive binding assay, fluorescence intensity (SfurOBP1; ligand concentration 14 (μM)): 6199 and 6820 and 8443 | Fluorescence competitive binding assay, fluorescence intensity (SfurOBP1; ligand concentration 16 (μM)): 5457 and 5916 and 5787 | Fluorescence competitive binding assay, fluorescence intensity (SfurOBP1; ligand concentration 18 (μM)): 6097 and 9706 and 8104 | Fluorescence competitive binding assay, fluorescence intensity (SfurOBP1; ligand concentration 20 (μM)): 6801 and 6290 and 6295 | IC50 (SfurOBP1; SfurOBP1, protein and 1-NPN both 2.0 µM, competitor 2-20 µM, read-out: IC50): > 20 µM | IC50 (SfurOBP11; SfurOBP11, protein and 1-NPN both 2.0 µM, competitor 2-20 µM, read-out: IC50): > 20 µM | Fluorescence intensity, fluorescence competitive binding assay, OBP11 (SfurOBP11; ligand concentration 2, replicate 1): 37643 | Fluorescence intensity, fluorescence competitive binding assay, OBP11 (SfurOBP11; ligand concentration 2, replicate 2): 35290 | Fluorescence intensity, fluorescence competitive binding assay, OBP11 (SfurOBP11; ligand concentration 2, replicate 3): 44360 | Fluorescence intensity, fluorescence competitive binding assay, OBP11 (SfurOBP11; ligand concentration 4, replicate 1): 35859 | Fluorescence intensity, fluorescence competitive binding assay, OBP11 (SfurOBP11; ligand concentration 4, replicate 2): 39342 | Fluorescence intensity, fluorescence competitive binding assay, OBP11 (SfurOBP11; ligand concentration 4, replicate 3): 34938 | Fluorescence intensity, fluorescence competitive binding assay, OBP11 (SfurOBP11; ligand concentration 6, replicate 1): 34140 | Fluorescence intensity, fluorescence competitive binding assay, OBP11 (SfurOBP11; ligand concentration 6, replicate 2): 38169 | Fluorescence intensity, fluorescence competitive binding assay, OBP11 (SfurOBP11; ligand concentration 6, replicate 3): 36155 | Fluorescence intensity, fluorescence competitive binding assay, OBP11 (SfurOBP11; ligand concentration 8, replicate 1): 32705 | Fluorescence intensity, fluorescence competitive binding assay, OBP11 (SfurOBP11; ligand concentration 8, replicate 2): 34472 | Fluorescence intensity, fluorescence competitive binding assay, OBP11 (SfurOBP11; ligand concentration 8, replicate 3): 34378 | Fluorescence intensity, fluorescence competitive binding assay, OBP11 (SfurOBP11; ligand concentration 10, replicate 1): 32486 | Fluorescence intensity, fluorescence competitive binding assay, OBP11 (SfurOBP11; ligand concentration 10, replicate 2): 33152 | Fluorescence intensity, fluorescence competitive binding assay, OBP11 (SfurOBP11; ligand concentration 10, replicate 3): 33818 | Fluorescence intensity, fluorescence competitive binding assay, OBP11 (SfurOBP11; ligand concentration 12, replicate 1): 28113 | Fluorescence intensity, fluorescence competitive binding assay, OBP11 (SfurOBP11; ligand concentration 12, replicate 2): 29890 | Fluorescence intensity, fluorescence competitive binding assay, OBP11 (SfurOBP11; ligand concentration 12, replicate 3): 30957 | Fluorescence intensity, fluorescence competitive binding assay, OBP11 (SfurOBP11; ligand concentration 14, replicate 1): 27880 | Fluorescence intensity, fluorescence competitive binding assay, OBP11 (SfurOBP11; ligand concentration 14, replicate 2): 28227 | Fluorescence intensity, fluorescence competitive binding assay, OBP11 (SfurOBP11; ligand concentration 14, replicate 3): 28574 | Fluorescence intensity, fluorescence competitive binding assay, OBP11 (SfurOBP11; ligand concentration 16, replicate 1): 24059 | Fluorescence intensity, fluorescence competitive binding assay, OBP11 (SfurOBP11; ligand concentration 16, replicate 2): 25490 | Fluorescence intensity, fluorescence competitive binding assay, OBP11 (SfurOBP11; ligand concentration 16, replicate 3): 25182 | Fluorescence intensity, fluorescence competitive binding assay, OBP11 (SfurOBP11; ligand concentration 18, replicate 1): 30643 | Fluorescence intensity, fluorescence competitive binding assay, OBP11 (SfurOBP11; ligand concentration 18, replicate 2): 29725 | Fluorescence intensity, fluorescence competitive binding assay, OBP11 (SfurOBP11; ligand concentration 18, replicate 3): 31591 | Fluorescence intensity, fluorescence competitive binding assay, OBP11 (SfurOBP11; ligand concentration 20, replicate 1): 30015 | Fluorescence intensity, fluorescence competitive binding assay, OBP11 (SfurOBP11; ligand concentration 20, replicate 2): 28576 | Fluorescence intensity, fluorescence competitive binding assay, OBP11 (SfurOBP11; ligand concentration 20, replicate 3): 24669 | IC50 (SfurOBP2; SfurOBP2, protein and 1-NPN both 2.0 µM, competitor 2-20 µM, read-out: IC50): > 20 µM | Fluorescence competitive binding assay, OBP2 (raw fluorescence reading) (SfurOBP2; ligand concentration 2 (unit not given), replicate column 1 of 3): 23899 | Fluorescence competitive binding assay, OBP2 (raw fluorescence reading) (SfurOBP2; ligand concentration 2 (unit not given), replicate column 2 of 3): 21462 | Fluorescence competitive binding assay, OBP2 (raw fluorescence reading) (SfurOBP2; ligand concentration 2 (unit not given), replicate column 3 of 3): 22264 | Fluorescence competitive binding assay, OBP2 (raw fluorescence reading) (SfurOBP2; ligand concentration 4 (unit not given), replicate column 1 of 3): 25374 | Fluorescence competitive binding assay, OBP2 (raw fluorescence reading) (SfurOBP2; ligand concentration 4 (unit not given), replicate column 2 of 3): 25147 | Fluorescence competitive binding assay, OBP2 (raw fluorescence reading) (SfurOBP2; ligand concentration 4 (unit not given), replicate column 3 of 3): 24357 | Fluorescence competitive binding assay, OBP2 (raw fluorescence reading) (SfurOBP2; ligand concentration 6 (unit not given), replicate column 1 of 3): 25139 | Fluorescence competitive binding assay, OBP2 (raw fluorescence reading) (SfurOBP2; ligand concentration 6 (unit not given), replicate column 2 of 3): 24429 | Fluorescence competitive binding assay, OBP2 (raw fluorescence reading) (SfurOBP2; ligand concentration 6 (unit not given), replicate column 3 of 3): 24096 | Fluorescence competitive binding assay, OBP2 (raw fluorescence reading) (SfurOBP2; ligand concentration 8 (unit not given), replicate column 1 of 3): 22380 | Fluorescence competitive binding assay, OBP2 (raw fluorescence reading) (SfurOBP2; ligand concentration 8 (unit not given), replicate column 2 of 3): 22288 | Fluorescence competitive binding assay, OBP2 (raw fluorescence reading) (SfurOBP2; ligand concentration 8 (unit not given), replicate column 3 of 3): 21248 | Fluorescence competitive binding assay, OBP2 (raw fluorescence reading) (SfurOBP2; ligand concentration 10 (unit not given), replicate column 1 of 3): 20934 | Fluorescence competitive binding assay, OBP2 (raw fluorescence reading) (SfurOBP2; ligand concentration 10 (unit not given), replicate column 2 of 3): 21198 | Fluorescence competitive binding assay, OBP2 (raw fluorescence reading) (SfurOBP2; ligand concentration 10 (unit not given), replicate column 3 of 3): 20778 | Fluorescence competitive binding assay, OBP2 (raw fluorescence reading) (SfurOBP2; ligand concentration 12 (unit not given), replicate column 1 of 3): 19074 | Fluorescence competitive binding assay, OBP2 (raw fluorescence reading) (SfurOBP2; ligand concentration 12 (unit not given), replicate column 2 of 3): 19350 | Fluorescence competitive binding assay, OBP2 (raw fluorescence reading) (SfurOBP2; ligand concentration 12 (unit not given), replicate column 3 of 3): 18397 | Fluorescence competitive binding assay, OBP2 (raw fluorescence reading) (SfurOBP2; ligand concentration 14 (unit not given), replicate column 1 of 3): 16875 | Fluorescence competitive binding assay, OBP2 (raw fluorescence reading) (SfurOBP2; ligand concentration 14 (unit not given), replicate column 2 of 3): 19948 | Fluorescence competitive binding assay, OBP2 (raw fluorescence reading) (SfurOBP2; ligand concentration 14 (unit not given), replicate column 3 of 3): 17641 | Fluorescence competitive binding assay, OBP2 (raw fluorescence reading) (SfurOBP2; ligand concentration 16 (unit not given), replicate column 1 of 3): 16016 | Fluorescence competitive binding assay, OBP2 (raw fluorescence reading) (SfurOBP2; ligand concentration 16 (unit not given), replicate column 2 of 3): 16681 | Fluorescence competitive binding assay, OBP2 (raw fluorescence reading) (SfurOBP2; ligand concentration 16 (unit not given), replicate column 3 of 3): 14367 | Fluorescence competitive binding assay, OBP2 (raw fluorescence reading) (SfurOBP2; ligand concentration 18 (unit not given), replicate column 1 of 3): 17119 | Fluorescence competitive binding assay, OBP2 (raw fluorescence reading) (SfurOBP2; ligand concentration 18 (unit not given), replicate column 2 of 3): 16819 | Fluorescence competitive binding assay, OBP2 (raw fluorescence reading) (SfurOBP2; ligand concentration 18 (unit not given), replicate column 3 of 3): 15979 | Fluorescence competitive binding assay, OBP2 (raw fluorescence reading) (SfurOBP2; ligand concentration 20 (unit not given), replicate column 1 of 3): 16047 | Fluorescence competitive binding assay, OBP2 (raw fluorescence reading) (SfurOBP2; ligand concentration 20 (unit not given), replicate column 2 of 3): 15694 | Fluorescence competitive binding assay, OBP2 (raw fluorescence reading) (SfurOBP2; ligand concentration 20 (unit not given), replicate column 3 of 3): 13725 | Fluorescence competitive binding assay, fluorescence intensity (SfurOBP3; ligand concentration 2): 69777 and 64977 and 64069 | Fluorescence competitive binding assay, fluorescence intensity (SfurOBP3; ligand concentration 4): 69897 and 66654 and 59281 | Fluorescence competitive binding assay, fluorescence intensity (SfurOBP3; ligand concentration 6): 72805 and 63593 and 63408 | Fluorescence competitive binding assay, fluorescence intensity (SfurOBP3; ligand concentration 8): 68908 and 64822 and 61456 | Fluorescence competitive binding assay, fluorescence intensity (SfurOBP3; ligand concentration 10): 63843 and 54968 and 55110 | Fluorescence competitive binding assay, fluorescence intensity (SfurOBP3; ligand concentration 12): 59021 and 51372 and 52724 | Fluorescence competitive binding assay, fluorescence intensity (SfurOBP3; ligand concentration 14): 52703 and 46147 and 50940 | Fluorescence competitive binding assay, fluorescence intensity (SfurOBP3; ligand concentration 16): 47036 and 45518 and 44907 | Fluorescence competitive binding assay, fluorescence intensity (SfurOBP3; ligand concentration 18): 49989 and 48773 and 43710 | Fluorescence competitive binding assay, fluorescence intensity (SfurOBP3; ligand concentration 20): 40319 and 40656 and 42300 | IC50 (SfurOBP3; SfurOBP3, protein and 1-NPN both 2.0 µM, competitor 2-20 µM, read-out: IC50): > 20 µM
SMILES: CCCCCCC=CCO [2-nonen-1-ol]
number of insects choosing hexane arm (S. furcifera adults): 12 | number of insects choosing volatilies arm (S. furcifera adults): 18 | number of insects failed (no choice) (S. furcifera adults): 10
